Laboratory results as given in PubChem BioAssay (NCI).
Where “and” joins values, the source holds several entries; their conditions need not be identical. Equal entries are not always repeated.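 Values below derive from 48-hour exposures of cells grown in 96-well plates, with endpoints linearly interpolated between the two concentrations bracketing the appropriate inhibition level. GI50 marks 50% less growth. The concentration for full growth arrest is given as TGI.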

Legend:
Assay in all cases: NCI tumour cell line growth inhibition, 48 h
[1] = system: ACHN renal
[2] = system: NCI-H522 lung
[3] = system: M19-MEL melanoma
[4] = system: SK-MEL-2 melanoma
[5] = system: DLD-1 colon
[6] = system: LXFL 529 NSCLC
[7] = system: T-47D breast
[8] = system: NCI/ADR-RES ovarian
[9] = system: MCF7 breast
[10] = system: PC-3 prostate
[11] = system: MDA-N

Row | SMILES | TGI [1] | TGI [2] | TGI [3] | TGI [4] | TGI [5] | TGI [6] | TGI [7] | GI50 [6] | TGI [8] | TGI [9] | TGI [10] | TGI [11]
1 | CCCN(CCC)c1c([N+](=O)[O-])cc(S(N)(=O)=O)cc1[N+](=O)[O-] | 31.8 µM | 31.5 µM | 40.6 µM | 30.5 µM | 34.9 µM | 30 µM | – | – | – | – | – | –
2 | O=C(c1ccco1)N(C(=S)N1CCN(c2ccccc2)CC1)c1ccccc1 | > 100 µM | > 100 µM | > 100 µM | > 100 µM | > 100 µM | > 100 µM | – | – | – | – | – | –
3 | CC1=C(N2CC2)C(=O)c2nc3n(c2C1=O)CCC3O (stereo not drawn) | 1.61 µM | 0.262 µM | 3.57 µM | 1.4 µM | – | 2.44 µM | 2.04 µM | – | – | – | – | –
4 | Nc1nc(N)c2ncn(CC(CO)CC(c3ccccc3)P(=O)(O)O)c2n1 (stereo not drawn) | > 100 µM | > 100 µM | > 100 µM | > 100 µM | > 100 µM | > 100 µM and 99.3 µM | – | > 100 µM and 13.8 µM | – | – | – | –
5 | CC(NCCS(=O)(=O)O)C(=O)O (stereo not drawn) | – | > 100 µM | > 100 µM | > 100 µM | > 100 µM | – | – | – | > 100 µM | > 100 µM | – | –
6 | CCCc1ccc(N=Cc2cc(OC)c(OC)c(OC)c2)cc1 | > 100 µM | > 100 µM | > 100 µM | > 100 µM | > 100 µM | > 100 µM | – | – | – | – | – | –
7 | CC1CC[C@]2(C(=O)O)CCC3(C)C(=C2[C@H]1C)C=CC1[C@@]2(C)CC[C@H](O)C(C)(C)C2CC[C@]13C (stereo partly drawn) | 48.2 µM | > 100 µM | – | > 100 µM | – | – | 58.9 µM | – | > 100 µM | > 100 µM | 80.1 µM | > 100 µM
8 | CC(NC(=O)c1ccc(OP(=O)(OCC2=CC(=O)c3ccccc3C2=O)N(C)CCCCCl)cc1)c1ccc(OCC2CCCCC2)c(C(N)=O)c1 (stereo not drawn) | 29.2 µM | 29 µM | – | 30.2 µM | – | – | 10.5 µM | – | 32.5 µM | 24.9 µM | 58.6 µM | 13 µM
9 | CCCCCc1c(CCCC)c(=O)[nH]c2cc(CNCC(OC)OC)ccc12 | 27.8 µM | 34.6 µM | – | 28.4 µM | – | – | 31.8 µM | – | 26.9 µM | 27.8 µM | 25.5 µM | 24 µM
10 | COc1cc(C(C#N)NNC(=O)c2ccccc2O)ccc1O (stereo not drawn) | > 100 µM | 28.7 µM | > 100 µM | > 100 µM | > 100 µM | > 100 µM | – | – | – | – | – | –
11 | CC1=C(C#N)S(=O)(=O)c2c(oc(C)c2C)N1 | > 100 µM | > 100 µM | – | > 100 µM | – | – | > 100 µM | – | > 100 µM | > 100 µM | > 100 µM | > 100 µM
12 | COC(=O)/C=C1/OC(c2ccccc2)=C(Cl)C1=O | 33 µM | 33 µM | – | 45.8 µM | – | – | > 56.6 µM | – | 61.9 µM | 37.5 µM | 31.6 µM | 43 µM
13 | CC1=C2N3C[C@@H](n4c(=O)n(C)c(=O)n43)C23CCC1n1c(=O)n(C)c(=O)n13 | > 100 µM | – | > 100 µM | – | > 100 µM | > 100 µM | – | – | – | – | – | –
14 | C/C(=N/O)c1cccc(Nc2nc3ccccc3c3[nH]c4ccccc4c23)c1 | 7.17 µM | 4.4 µM | – | 5.8 µM | – | – | 3.82 µM | – | 20 µM | 5.63 µM | 8.05 µM | 7.56 µM
15 | NC1CCC(c2cc3ccccc3s2)(N2CCCCC2)CC1 (stereo not drawn) | 12.5 µM | 4.15 µM | – | 2.95 µM | – | – | 5.51 µM | – | 2.42 µM | 3.05 µM | 3.59 µM | 3.2 µM
